Experiments:
Experiment in all cases: relative viability (nuclei count vs DMSO), 5 days (fraction); higher = more cells survive
Motesanib + OSI-027 = compound: CC1(C)CNc2cc(NC(=O)c3cccnc3NCc3ccncc3)ccc21 [Motesanib] + COc1cccc2cc(-c3nc([C@H]4CC[C@H](C(=O)O)CC4)n4ncnc(N)c34)[nH]c12 [OSI-027] (partner 0.5 µM)
In short: (§1)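 Relative viability equals treated-well nuclei counts divided by vehicle-well nuclei counts. Counts came from 4× images of lung cancer cell lines grown in 1536-well plates for 5 days after pin-tool dosing on the day after seeding. Dosing used one drug alone or a fixed anchor-drug dose plus five library-drug doses (not always all listed) in √10 steps, and values are medians of duplicate plates.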

Motesanib + Tozasertib = compound: CC1(C)CNc2cc(NC(=O)c3cccnc3NCc3ccncc3)ccc21 [Motesanib] + Cc1cc(Nc2cc(N3CCN(C)CC3)nc(Sc3ccc(NC(=O)C4CC4)cc3)n2)n[nH]1 [Tozasertib] (partner 0.1 µM)
In short: as §1

Motesanib + AZD7762 = compound: CC1(C)CNc2cc(NC(=O)c3cccnc3NCc3ccncc3)ccc21 [Motesanib] + NC(=O)Nc1cc(-c2cccc(F)c2)sc1C(=O)N[C@H]1CCCNC1 [AZD7762] (partner 0.2 µM)
In short: as §1

[1] = compound: C[C@@]1(C(=O)Nc2ccc(F)nc2)CCCN1c1nc(Nc2cc(C3CC3)n[nH]2)c2cccn2n1 + Cc1nc(NC(=O)N2CCC[C@H]2C(N)=O)sc1-c1ccnc(C(C)(C)C(F)(F)F)c1 [Alpelisib] (partner 2 µM)
In short: as §1

Row | Cell Line | relative viability (Motesanib + OSI-027; first compound 0.01 µM) | relative viability (Motesanib + OSI-027; first compound 0.03162 µM) | relative viability (Motesanib + OSI-027; first compound 0.1 µM) | relative viability (Motesanib + OSI-027; first compound 0.3162 µM) | relative viability (Motesanib + OSI-027; first compound 1 µM) | relative viability (Motesanib + Tozasertib; first compound 0.01 µM) | relative viability (Motesanib + Tozasertib; first compound 0.03162 µM) | relative viability (Motesanib + Tozasertib; first compound 0.1 µM) | relative viability (Motesanib + Tozasertib; first compound 0.3162 µM) | relative viability (Motesanib + Tozasertib; first compound 1 µM) | relative viability (Motesanib + AZD7762; first compound 0.01 µM) | relative viability (Motesanib + AZD7762; first compound 0.03162 µM) | relative viability (Motesanib + AZD7762; first compound 0.1 µM) | relative viability (Motesanib + AZD7762; first compound 0.3162 µM) | relative viability (Motesanib + AZD7762; first compound 1 µM) | relative viability ([1]; first compound 0.04 µM) | relative viability ([1]; first compound 0.1265 µM) | relative viability ([1]; first compound 0.4 µM) | relative viability ([1]; first compound 1.265 µM)
1 | NCI-H1975 | 0.66 | 0.702 | 0.747 | 0.677 | 0.669 | 0.771 | 0.65 | 0.773 | 0.711 | 0.648 | 0.656 | 0.686 | 0.752 | 0.821 | 0.709 | 0.638 | 0.553 | 0.472 | 0.482
2 | NCI-H1944 | 0.37 | 0.424 | 0.438 | 0.475 | 0.427 | 0.258 | 0.229 | 0.233 | 0.236 | 0.284 | 0.425 | 0.476 | 0.532 | 0.541 | 0.472 | 0.72 | 0.657 | 0.669 | 0.834
3 | LU99A | 0.287 | 0.261 | 0.301 | 0.307 | 0.322 | 0.262 | 0.234 | 0.263 | 0.273 | 0.263 | 0.39 | 0.361 | 0.382 | 0.399 | 0.355 | 0.392 | 0.306 | 0.291 | 0.307
4 | SW 1573 | 0.561 | 0.583 | 0.549 | 0.736 | 0.709 | 0.144 | 0.145 | 0.187 | 0.222 | 0.177 | – | – | – | – | – | 0.802 | 0.518 | 0.523 | 0.715
5 | NCI-H2347 | 0.411 | 0.364 | 0.357 | 0.51 | 0.493 | 0.466 | 0.445 | 0.548 | 0.524 | 0.443 | 0.738 | 0.825 | 0.749 | 0.674 | 0.712 | 1.17 | 0.873 | 0.94 | 1.11
6 | NCI-H2009 | 0.646 | 0.689 | 0.713 | 0.593 | 0.623 | 0.731 | 0.705 | 0.747 | 0.691 | 0.721 | – | – | – | – | – | 1.17 | 1.24 | 1.12 | 1.22
7 | HCC-15 | 0.693 | 0.65 | 0.64 | 0.817 | 0.64 | 0.454 | 0.278 | 0.372 | 0.451 | 0.392 | 1.34 | 1.18 | 1.06 | 1.36 | 1.33 | 0.896 | 0.757 | 0.829 | 0.937
8 | HCC-44 | 0.552 | 0.431 | 0.633 | 0.633 | 0.544 | 0.944 | 0.721 | 0.941 | 0.998 | 0.974 | 0.93 | 1.05 | 1.13 | 1.08 | 1.02 | 0.666 | 0.698 | 0.552 | 0.783
9 | COR-L23 | 0.788 | 0.721 | 0.874 | 0.753 | 0.806 | 0.238 | 0.141 | 0.456 | 0.193 | 0.191 | – | – | – | – | – | 0.721 | 0.711 | 0.563 | 0.412
10 | NCI-H1299 | – | – | – | – | – | – | – | – | – | – | – | – | – | – | – | 1.11 | 1.05 | 1.07 | 1.09
11 | NCI-H1650 | 0.747 | 0.688 | 0.725 | 0.562 | 0.586 | 0.467 | 0.381 | 0.438 | 0.491 | 0.439 | – | – | – | – | – | – | – | – | –
12 | COR-L 105 | 0.768 | 0.7 | 0.717 | 0.689 | 0.626 | 0.341 | 0.33 | 0.327 | 0.381 | 0.345 | – | – | – | – | – | 0.871 | 0.805 | 0.689 | 0.806
13 | ChaGo-K-1 | 0.637 | 0.474 | 0.495 | 0.597 | 0.563 | 0.236 | 0.237 | 0.219 | 0.252 | 0.22 | 0.89 | 0.812 | 0.804 | 0.836 | 0.795 | – | – | – | –
14 | NCI-H2228 | 0.572 | 0.455 | 0.489 | 0.689 | 0.572 | 0.355 | 0.184 | 0.289 | 0.272 | 0.251 | – | – | – | – | – | 0.709 | 0.518 | 0.533 | 0.529
15 | SW 900 | 0.65 | 0.515 | 0.651 | 0.61 | 0.656 | 0.599 | 0.524 | 0.66 | 0.51 | 0.638 | 0.787 | 0.786 | 0.552 | 0.523 | 0.726 | – | – | – | –
16 | NCI-H661 | 0.73 | 0.741 | 0.848 | 0.749 | 0.576 | 0.372 | 0.357 | 0.367 | 0.361 | 0.351 | – | – | – | – | – | 0.592 | 0.665 | 0.793 | 0.566
17 | NCI-H1563 | 0.754 | 0.799 | 0.797 | 0.752 | 0.704 | – | – | – | – | – | – | – | – | – | – | 0.943 | 0.891 | 0.913 | 0.85
18 | A549 | – | – | – | – | – | – | – | – | – | – | – | – | – | – | – | 0.638 | 0.392 | 0.333 | 0.35
19 | NCI-H2342 | 0.555 | 0.654 | 0.672 | 0.505 | 0.637 | 0.493 | 0.496 | 0.438 | 0.562 | 0.583 | 0.46 | 0.515 | 0.571 | 0.476 | 0.459 | – | – | – | –
20 | NCI-H1623 | 0.454 | 0.475 | 0.475 | 0.389 | 0.409 | 0.414 | 0.426 | 0.457 | 0.425 | 0.475 | – | – | – | – | – | – | – | – | –
21 | NCI-H522 | 0.741 | 0.585 | 0.417 | 0.659 | 0.732 | 0.629 | 0.546 | 0.611 | 0.566 | 0.595 | 0.815 | 0.721 | 0.864 | 1 | 1 | – | – | – | –
22 | IA-LM | – | – | – | – | – | – | – | – | – | – | – | – | – | – | – | 0.83 | 0.674 | 0.69 | 0.698
23 | EBC-1 | – | – | – | – | – | – | – | – | – | – | – | – | – | – | – | 1.04 | 0.608 | 0.642 | 0.431

— the supplement of paper PMC10307832
